Source: paper PMC5218480 (PLoS ONE, 2017)

Test system: MV-4-11 cells
Assay: Gene expression microarray analysis (Affymetrix PrimeView) and GSEA
Format: cell-based, human
Parameters: RFU PODN (11730768_x_at) / Fold change /veh PODN (11730768_x_at) / RFU LINC00158 (11744669_a_at) / Fold change /veh LINC00158 (11744669_a_at) / RFU DUSP10 (11751237_a_at) / Fold change /veh DUSP10 (11751237_a_at) / RFU ID3 (11757404_x_at) / Fold change /veh ID3 (11757404_x_at) / RFU PLEKHG5 (11737974_s_at) / Fold change /veh PLEKHG5 (11737974_s_at) / RFU LRRC4B (11730491_at) / Fold change /veh LRRC4B (11730491_at) / RFU GIMAP4 (11747438_a_at) / Fold change /veh GIMAP4 (11747438_a_at) / RFU KRT8 (11758183_x_at) / Fold change /veh KRT8 (11758183_x_at) / RFU CNN1 (11734310_a_at) / Fold change /veh CNN1 (11734310_a_at) / RFU VPS37D (11726825_at) / Fold change /veh VPS37D (11726825_at) / RFU C10orf10 (11716522_x_at) / Fold change /veh C10orf10 (11716522_x_at) / RFU KIR2DL2 /// KIR2DL4 /// KIR2DL5A /// KIR2DL5B /// KIR2DS1 /// KIR2DS2 /// KIR2DS3 /// KIR2DS4 /// KIR3DL3 /// KIR3DL3 /// KIR3DS1 (11738374_at) / Fold change /veh KIR2DL2 /// KIR2DL4 /// KIR2DL5A /// KIR2DL5B /// KIR2DS1 /// KIR2DS2 /// KIR2DS3 /// KIR2DS4 /// KIR3DL3 /// KIR3DL3 /// KIR3DS1 (11738374_at) / RFU C1QL1 (11718748_at) / Fold change /veh C1QL1 (11718748_at) / RFU TMPRSS4 (11747572_a_at) / Fold change /veh TMPRSS4 (11747572_a_at) / RFU HAMP (11756126_x_at) / Fold change /veh HAMP (11756126_x_at) / RFU RNFT2 (11725882_a_at) / Fold change /veh RNFT2 (11725882_a_at) / RFU NR4A2 (11747474_a_at) / Fold change /veh NR4A2 (11747474_a_at) / RFU ABCC12 (11746883_a_at) / Fold change /veh ABCC12 (11746883_a_at) / RFU TMEM136 (11760407_x_at) / Fold change /veh TMEM136 (11760407_x_at) / RFU CLDN22 /// WWC2 (11732394_at) / Fold change /veh CLDN22 /// WWC2 (11732394_at) / RFU HLA-DPB1 (11760878_x_at) / Fold change /veh HLA-DPB1 (11760878_x_at) / RFU SPINT1 (11716480_a_at) / Fold change /veh SPINT1 (11716480_a_at) / RFU GAP43 (11754022_s_at) / Fold change /veh GAP43 (11754022_s_at) / RFU A4GNT (11735810_at) / Fold change /veh A4GNT (11735810_at) / RFU PRB3 (11715151_x_at) / Fold change /veh PRB3 (11715151_x_at) / RFU TUBB4B (11761932_at) / Fold change /veh TUBB4B (11761932_at) / RFU CAPN14 (11732068_a_at) / Fold change /veh CAPN14 (11732068_a_at) / RFU TMCC2 (11721928_a_at) / Fold change /veh TMCC2 (11721928_a_at) / RFU IRGQ (11745062_a_at) / Fold change /veh IRGQ (11745062_a_at) / RFU FAM174B (11720279_a_at) / Fold change /veh FAM174B (11720279_a_at) / RFU TMPRSS4 (11748680_a_at) / Fold change /veh TMPRSS4 (11748680_a_at) / RFU FAM212B (11763350_a_at) / Fold change /veh FAM212B (11763350_a_at) / RFU PLEKHG5 (11743358_a_at) / Fold change /veh PLEKHG5 (11743358_a_at) / RFU ZSCAN30 (11745921_a_at) / Fold change /veh ZSCAN30 (11745921_a_at) / RFU CMKLR1 (11741424_a_at) / Fold change /veh CMKLR1 (11741424_a_at) / RFU LOC101060620 /// MAPK8IP1 (11723275_at) / Fold change /veh LOC101060620 /// MAPK8IP1 (11723275_at) / RFU SPTSSB (11747773_x_at) / Fold change /veh SPTSSB (11747773_x_at) / RFU PRSS12 (11739890_at) / Fold change /veh PRSS12 (11739890_at) / RFU BIN1 (11741810_x_at) / Fold change /veh BIN1 (11741810_x_at) / RFU WNT11 (11732464_a_at) / Fold change /veh WNT11 (11732464_a_at) / RFU C10orf10 (11716521_a_at) / Fold change /veh C10orf10 (11716521_a_at) / RFU C5orf56 (11738089_at) / Fold change /veh C5orf56 (11738089_at) / RFU CYB561 (11721691_x_at) / Fold change /veh CYB561 (11721691_x_at) / RFU ANKRD19P (11752326_a_at) / Fold change /veh ANKRD19P (11752326_a_at) / RFU OR2T12 /// OR2T33 /// OR2T8 (11738714_s_at) / Fold change /veh OR2T12 /// OR2T33 /// OR2T8 (11738714_s_at) / RFU VCAN (11748164_a_at) / Fold change /veh VCAN (11748164_a_at) / RFU JSRP1 (11732532_at) / Fold change /veh JSRP1 (11732532_at) / RFU KRTAP10-11 (11738290_x_at) / Fold change /veh KRTAP10-11 (11738290_x_at) / RFU MYO3A (11730013_a_at) / Fold change /veh MYO3A (11730013_a_at) / RFU EBF3 (11725865_a_at) / Fold change /veh EBF3 (11725865_a_at) / RFU CAMK2N1 (11719241_x_at) / Fold change /veh CAMK2N1 (11719241_x_at) / RFU C5orf56 (11738088_a_at) / Fold change /veh C5orf56 (11738088_a_at) / RFU OLFML3 (11715873_a_at) / Fold change /veh OLFML3 (11715873_a_at) / RFU LOC100653217 /// NTM (11731650_a_at) / Fold change /veh LOC100653217 /// NTM (11731650_a_at) / RFU MAPK11 (11762145_a_at) / Fold change /veh MAPK11 (11762145_a_at) / RFU FIZ1 (11724087_x_at) / Fold change /veh FIZ1 (11724087_x_at) / RFU OASL (11726364_x_at) / Fold change /veh OASL (11726364_x_at) / RFU SOX15 (11748057_x_at) / Fold change /veh SOX15 (11748057_x_at) / RFU CD79A (11719716_a_at) / Fold change /veh CD79A (11719716_a_at) / RFU HIST1H1D (11736915_at) / Fold change /veh HIST1H1D (11736915_at) / RFU CASKIN2 (11723855_a_at) / Fold change /veh CASKIN2 (11723855_a_at) / RFU LOC730098 (11760151_x_at) / Fold change /veh LOC730098 (11760151_x_at) / RFU OR4N2 (11742367_at) / Fold change /veh OR4N2 (11742367_at) / RFU PRRT2 (11749266_a_at) / Fold change /veh PRRT2 (11749266_a_at) / RFU SNX32 (11753110_a_at) / Fold change /veh SNX32 (11753110_a_at) / RFU CDHR5 (11726645_a_at) / Fold change /veh CDHR5 (11726645_a_at) / RFU RCAN1 (11760418_a_at) / Fold change /veh RCAN1 (11760418_a_at) / RFU FAM167A (11723789_a_at) / Fold change /veh FAM167A (11723789_a_at) / RFU FAM26E (11764081_at) / Fold change /veh FAM26E (11764081_at) / RFU ISYNA1 (11749810_s_at) / Fold change /veh ISYNA1 (11749810_s_at) / RFU ACY1 (11761880_at) / Fold change /veh ACY1 (11761880_at) / RFU 11764098_at / Fold change /veh 11764098_at / RFU SAMD14 (11745864_x_at) / Fold change /veh SAMD14 (11745864_x_at) / RFU NPB (11741838_a_at) / Fold change /veh NPB (11741838_a_at) / RFU TMPRSS6 (11731388_a_at) / Fold change /veh TMPRSS6 (11731388_a_at) / RFU KRTAP10-2 (11738614_at) / Fold change /veh KRTAP10-2 (11738614_at) / RFU ARHGAP8 /// PRR5-ARHGAP8 (11727945_x_at) / Fold change /veh ARHGAP8 /// PRR5-ARHGAP8 (11727945_x_at) / RFU KRTAP5-7 /// NADSYN1 (11734609_at) / Fold change /veh KRTAP5-7 /// NADSYN1 (11734609_at) / RFU RASL12 (11751679_a_at) / Fold change /veh RASL12 (11751679_a_at) / RFU CDKN2B (11736163_a_at) / Fold change /veh CDKN2B (11736163_a_at) / RFU PRF1 (11729649_at) / Fold change /veh PRF1 (11729649_at) / RFU, ZNF638 /// ZNF638-IT1 / Fold change vs veh, ZNF638 /// ZNF638-IT1 / RFU, PANK3 / Fold change vs veh, PANK3 / RFU, SH3YL1 / Fold change vs veh, SH3YL1 / RFU, ZEB2 / Fold change vs veh, ZEB2 / RFU, NRIP1 / Fold change vs veh, NRIP1 / RFU, PTTG1IP / Fold change vs veh, PTTG1IP / RFU, CAPN2 / Fold change vs veh, CAPN2 / RFU, MED14 / Fold change vs veh, MED14 / RFU, SNORA58 / Fold change vs veh, SNORA58 / RFU, C1orf63 / Fold change vs veh, C1orf63 / RFU, LRRFIP1 / Fold change vs veh, LRRFIP1 / RFU, NDUFAF7 / Fold change vs veh, NDUFAF7 / RFU, SLC12A2 / Fold change vs veh, SLC12A2 / RFU, IBTK / Fold change vs veh, IBTK / RFU, ESF1 / Fold change vs veh, ESF1 / Fold change vs veh, TMEM50B / RFU, TAOK1 / Fold change vs veh, TAOK1 / RFU, ACBD3 / Fold change vs veh, ACBD3 / RFU, TMA16 / Fold change vs veh, TMA16 / RFU, RWDD3 / Fold change vs veh, RWDD3 / RFU, BCAT1 / Fold change vs veh, BCAT1 / RFU, EDEM3 / Fold change vs veh, EDEM3 / RFU, TMEM33 / Fold change vs veh, TMEM33 / RFU, WDR75 / Fold change vs veh, WDR75 / RFU, AHCTF1 / Fold change vs veh, AHCTF1 / RFU, TFRC / Fold change vs veh, TFRC / RFU, ZDHHC17 / Fold change vs veh, ZDHHC17 / RFU, NOM1 / Fold change vs veh, NOM1 / RFU, ARL8B / Fold change vs veh, ARL8B / RFU, ZBTB11 / Fold change vs veh, ZBTB11 / RFU, TAMM41 / Fold change vs veh, TAMM41 / RFU, KIAA1704 /// LOC100996395 / Fold change vs veh, KIAA1704 /// LOC100996395 / RFU, ING1 / Fold change vs veh, ING1 / RFU, TRMT61B / Fold change vs veh, TRMT61B / RFU, FUBP3 / Fold change vs veh, FUBP3 / RFU, TP53 / Fold change vs veh, TP53 / RFU, TNKS2 / Fold change vs veh, TNKS2 / RFU, ZFP14 / Fold change vs veh, ZFP14 / RFU, ACTR2 / Fold change vs veh, ACTR2 / RFU, PPP3R1 / Fold change vs veh, PPP3R1 / RFU, PIK3R1 / Fold change vs veh, PIK3R1 / RFU, HNRNPA1 / Fold change vs veh, HNRNPA1 / RFU, RNF170 / Fold change vs veh, RNF170 / RFU, ZNF28 / Fold change vs veh, ZNF28 / RFU, RNGTT / Fold change vs veh, RNGTT / RFU, OGT / Fold change vs veh, OGT / RFU, BRD1 / Fold change vs veh, BRD1 / RFU, MARS / Fold change vs veh, MARS / RFU, ZNF655 / Fold change vs veh, ZNF655 / RFU, FAHD1 / Fold change vs veh, FAHD1 / RFU, BDP1 / Fold change vs veh, BDP1 / RFU, LRRCC1 / Fold change vs veh, LRRCC1 / RFU, ARID1A / Fold change vs veh, ARID1A / RFU, ZNF146 / Fold change vs veh, ZNF146 / RFU, ZNF330 / Fold change vs veh, ZNF330 / RFU, GPN3 / Fold change vs veh, GPN3 / RFU, C9orf123 / Fold change vs veh, C9orf123 / RFU, N4BP2L2 / Fold change vs veh, N4BP2L2 / RFU, ARFIP1 / Fold change vs veh, ARFIP1 / RFU, FAM179B / Fold change vs veh, FAM179B / RFU, BCL10 / Fold change vs veh, BCL10 / RFU, UHRF1BP1L / Fold change vs veh, UHRF1BP1L / RFU, BET1 / Fold change vs veh, BET1 / RFU, CNOT2 / Fold change vs veh, CNOT2 / RFU, ZNF268 / Fold change vs veh, ZNF268 / Fold change vs veh, ZNF507 / RFU, DGCR2 / Fold change vs veh, DGCR2 / RFU, WDSUB1 / Fold change vs veh, WDSUB1 / Fold change vs veh, HSP90B1 /// MIR3652 / RFU, ADSS / Fold change vs veh, ADSS / RFU, GK / Fold change vs veh, GK / RFU, ZNF148 / Fold change vs veh, ZNF148 / RFU, TAF9 / Fold change vs veh, TAF9 / RFU, SLC1A5 / Fold change vs veh, SLC1A5 / RFU, SLMO2 / Fold change vs veh, SLMO2 / RFU, ABCC4 / Fold change vs veh, ABCC4 / RFU, LOC101060439 /// RAP1B / Fold change vs veh, LOC101060439 /// RAP1B / RFU, RFX7 / Fold change vs veh, RFX7 / RFU, GTPBP10 / Fold change vs veh, GTPBP10 / RFU, CNEP1R1 / Fold change vs veh, CNEP1R1 / RFU, BIVM-ERCC5 /// ERCC5 / Fold change vs veh, BIVM-ERCC5 /// ERCC5 / RFU, ILF3 / Fold change vs veh, ILF3 / RFU 11762660_at / Fold change /veh 11762660_at / RFU VCAN (11757783_s_at) / Fold change /veh VCAN (11757783_s_at) / RFU DDX43 (11728927_at) / Fold change /veh DDX43 (11728927_at) / RFU KRT8 (11758188_x_at) / Fold change /veh KRT8 (11758188_x_at) / RFU NKD1 (11759106_at) / Fold change /veh NKD1 (11759106_at) / RFU SRD5A1 (11742802_a_at) / Fold change /veh SRD5A1 (11742802_a_at) / RFU TPSAB1 /// TPSB2 (11721975_s_at) / Fold change /veh TPSAB1 /// TPSB2 (11721975_s_at) / RFU GSTM3 (11746129_a_at) / Fold change /veh GSTM3 (11746129_a_at) / RFU IL23R (11737362_x_at) / Fold change /veh IL23R (11737362_x_at) / RFU TMEM51 (11727254_a_at) / Fold change /veh TMEM51 (11727254_a_at) / RFU PIWIL2 (11732686_x_at) / Fold change /veh PIWIL2 (11732686_x_at) / RFU ORM1 (11744905_x_at) / Fold change /veh ORM1 (11744905_x_at) / RFU CCDC152 (11743942_at) / Fold change /veh CCDC152 (11743942_at) / RFU ECM1 (11717891_a_at) / Fold change /veh ECM1 (11717891_a_at) / RFU IL23R (11748794_a_at) / Fold change /veh IL23R (11748794_a_at) / RFU TNFAIP8L3 (11732012_x_at) / Fold change /veh TNFAIP8L3 (11732012_x_at) / RFU MBOAT4 (11741988_at) / Fold change /veh MBOAT4 (11741988_at) / RFU 11764193_at / Fold change /veh 11764193_at / RFU TMEM53 (11763286_at) / Fold change /veh TMEM53 (11763286_at) / RFU MAGEB2 (11727129_at) / Fold change /veh MAGEB2 (11727129_at) / RFU TMEM200A (11744735_a_at) / Fold change /veh TMEM200A (11744735_a_at) / RFU CCDC152 (11751479_a_at) / Fold change /veh CCDC152 (11751479_a_at) / RFU FAM211A (11726209_a_at) / Fold change /veh FAM211A (11726209_a_at) / RFU RGS16 (11746705_a_at) / Fold change /veh RGS16 (11746705_a_at) / RFU VCAN (11755009_s_at) / Fold change /veh VCAN (11755009_s_at) / RFU RHOB (11743442_s_at) / Fold change /veh RHOB (11743442_s_at) / RFU RGS16 (11720943_a_at) / Fold change /veh RGS16 (11720943_a_at) / RFU RGS16 (11720944_at) / Fold change /veh RGS16 (11720944_at) / RFU, VPS4B / Fold change vs veh, VPS4B / RFU, CREB1 / Fold change vs veh, CREB1 / RFU, DNAJC13 / Fold change vs veh, DNAJC13 / RFU, GNAQ / Fold change vs veh, GNAQ / RFU, CDK5R1 / Fold change vs veh, CDK5R1 / RFU, ZRANB3 / Fold change vs veh, ZRANB3 / RFU, CUL4A / Fold change vs veh, CUL4A / RFU, CCNY / Fold change vs veh, CCNY / RFU, UFL1 / Fold change vs veh, UFL1 / RFU, COG3 / Fold change vs veh, COG3 / RFU, DIAPH2 / Fold change vs veh, DIAPH2 / RFU, SKA2 / Fold change vs veh, SKA2 / RFU, AFF3 / Fold change vs veh, AFF3 / RFU, LMF1 / Fold change vs veh, LMF1 / RFU, IPO11 / Fold change vs veh, IPO11 / RFU, DFFB / Fold change vs veh, DFFB / RFU, FOXP1 / Fold change vs veh, FOXP1 / RFU, CARD8 / Fold change vs veh, CARD8 / RFU, STRN3 / Fold change vs veh, STRN3 / RFU, ADK / Fold change vs veh, ADK / RFU, RASSF2 / Fold change vs veh, RASSF2 / RFU, WIPF1 / Fold change vs veh, WIPF1 / RFU, LARP1B / Fold change vs veh, LARP1B / RFU, RASA1 / Fold change vs veh, RASA1 / RFU, RB1 / Fold change vs veh, RB1 / RFU, PPFIA1 / Fold change vs veh, PPFIA1 / RFU, MAT2A / Fold change vs veh, MAT2A / RFU, CCT5 / Fold change vs veh, CCT5 / RFU, WDR92 / Fold change vs veh, WDR92 / RFU, CUX1 / Fold change vs veh, CUX1 / RFU, TTC7A / Fold change vs veh, TTC7A / RFU, TMEM135 / Fold change vs veh, TMEM135 / RFU, DEPTOR / Fold change vs veh, DEPTOR / RFU, CPM / Fold change vs veh, CPM / RFU, DNAJB6 / Fold change vs veh, DNAJB6 / RFU, CACNA2D3 / Fold change vs veh, CACNA2D3 / RFU, DTX4 / Fold change vs veh, DTX4 / RFU, TFCP2 / Fold change vs veh, TFCP2 / RFU, GMCL1 /// GMCL1P1 / Fold change vs veh, GMCL1 /// GMCL1P1 / RFU, AEBP2 / Fold change vs veh, AEBP2 / RFU, SNHG1 /// SNORD22 /// SNORD25 /// SNORD26 /// SNORD27 /// SNORD28 /// SNORD29 /// SNORD31 / Fold change vs veh, SNHG1 /// SNORD22 /// SNORD25 /// SNORD26 /// SNORD27 /// SNORD28 /// SNORD29 /// SNORD31 / Fold change (Aza/veh), C12orf56 (ProbeSet 11735607_a_at) / Fold change (ACY-1035/veh), C12orf56 (ProbeSet 11735607_a_at) / Fold change (Aza/veh), FGFR1OP (ProbeSet 11751329_s_at) / Fold change (ACY-1035/veh), FGFR1OP (ProbeSet 11751329_s_at) / Fold change (Aza/veh), VPS36 (ProbeSet 11739960_a_at) / Fold change (ACY-1035/veh), VPS36 (ProbeSet 11739960_a_at) / RFU SYPL1 (11715823_x_at) / Fold change /veh SYPL1 (11715823_x_at) / RFU IGFBP7 (11715501_s_at) / Fold change /veh IGFBP7 (11715501_s_at) / RFU REEP3 (11722064_at) / Fold change /veh REEP3 (11722064_at) / RFU IGLL1 (11728026_x_at) / Fold change /veh IGLL1 (11728026_x_at): dose or concentration left out as unconfirmed
Conditions: ProbeSet 11732154_at; LIST B

Nc1ccc(-c2cccs2)cc1NC(=O)c1ccc2c(c1)cc(C1CC1)n2CCN1CCOCC1 [ACY-1035]
RFU, OGT: 340.88 RFU
